Measured values: patent US11926619B2, “Certain pladienolide compounds and methods of use” (EISAI R&D MANAGEMENT CO., LTD., priority 2018, dated 2024)

Legend:
SF3b complexes = target: T1, SF3b complexes (Homo sapiens, UniProt O75533+Q7RTV0); assay: Scintillation proximity assay (SPA) with [3H]-labelled pladienolide probe; format: binding; conditions: wt SF3B1, read-out: SPA (wt SF3B1 cells) IC50
T1 construct: endogenous in cells
Method: Batch immobilization of anti-SF3B1 antibody (MBL) to anti-mouse PVT SPA scintillation beads (PerkinElmer) was prepared as follows: for every 2.5 mg of nuclear extracts, 5 μg anti-SF3B1 antibody and 1.5 mg of beads were mixed in 150 μl PBS. The antibody-bead mixture was incubated for 30 min at RT and centrifuged at 18,000 g for 5 min. 150 μl PBS was used to resuspend every 1.5 mg antibody-bead mixture. The beads were suspended and added to the prepared nuclear extracts. The slurry was incubated for 2 h at 4° C. with gentle mixing. The beads were then collected by centrifuging at 18,000 g for 5 min, and washed twice with PBS+0.1% Triton X-100. After a final centrifugation step, every 1.5 mg of beads was suspended with 150 μl of PBS. The SF3b complexes were tested for [^3H]-labelled pladienolide probe binding ([^3H]-PB), synthesized as previously described (Kotake et al., 2007). 100 μL binding reactions were prepared with 50 μl bead slurry and by adding varying concentrations of PB or PB—OH, and after 30 min pre-incubation, 2.5 nM [^3H]—PB was added. The mixture was incubated for 30 min, and luminescence signals were read using a MicroBeta2 Plate Counter (PerkinElmer). Prism 6 (Graphpad) was used for non-linear regression curve fitting of the data.

[1] = test system: WiDr-R cells (colon cancer cells; chemically-induced SF3B1 R1074H mutant); assay: Cell viability assay (CellTiter-Glo, 72 hr), resistant WiDr-R cells (counter-screen); format: cell-based; conditions: WiDr-R cells (SF3B1 R1074H mutation, resistant); read-out: WiDr-R GI50
Procedure, shortened: (§1)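 Cells at 2000/well were exposed to 9 compound concentrations (0.1% DMSO) in duplicate or triplicate for 72 hr at 37 °C. ATP was read by CellTiter-Glo against a time-zero plate and DMSO control growth. Percent growth/viability was plotted against concentration to give Emax; negative values indicate lethality.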

[2] = test system: WiDr cells (colon cancer cells; wildtype SF3B1); assay: Cell viability assay (CellTiter-Glo, 72 hr), WiDr cells; format: cell-based; conditions: Homo sapiens; WiDr cells (wildtype SF3B1); read-out: WiDr GI50
Procedure, shortened: as §1

[3] = test system: Panc 05.04 cells (pancreatic cancer cells; Q699H and K700E mutations in SF3B1); assay: Cell viability assay (CellTiter-Glo, 72 hr), Panc 05.04 cells; format: cell-based; conditions: Panc 05.04 cells (mutant SF3B1); for Emax: maximum achievable response in tested dose range, negative value = cellular lethality, read-out: Panc 05.04 (mt SF3B1 cells) Emax (%); for GI50: read-out: Panc 05.04 (mt SF3B1 cells), GI50
Procedure, shortened: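 Panc 05.04 cells treated 72 hr at 37 °C with 9 compound concentrations (0.1% DMSO), duplicate or triplicate. ATP read by CellTiter-Glo; growth inhibition/viability calculated against a time-zero plate and DMSO control growth. Emax is the maximal response over the tested range, negative values meaning lethality.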

Compound	IC50 (SF3b complexes)	GI50 [1]	GI50 [2]	Emax [3]	GI50 [3]
C/C(=C\C=C\[C@@H](C)c1ccccn1)[C@H]1OC(=O)CCCCC[C@@H](OC(=O)N2CCN(C)CC2)/C=C/[C@@H]1C	7.9 nM	> 10000 nM	67.1 nM	-93.5%	75.1 nM
C/C(=C\C=C\[C@@H](C)COC(=O)N1CCC[C@H]1CO)[C@H]1OC(=O)CCCCC[C@@H](OC(=O)N2CCN(C)CC2)/C=C/[C@@H]1C	3.61 nM	423 nM	2.52 nM	-62.8%	2.9 nM
C/C(=C\C=C\[C@@H](C)c1ccccn1)[C@H]1OC(=O)CCCCC[C@@H](OC(=O)N(C)C)/C=C/[C@@H]1C	> 1200 nM	7760 nM	1060 nM	48.2%	5790 nM
C/C(=C\C=C\[C@@H](C)c1ncccn1)[C@H]1OC(=O)C[C@H](O)CC[C@@](C)(O)[C@@H](OC(=O)N2CCN(C3CCCCCC3)CC2)/C=C/[C@@H]1C	8.1 nM	> 1000 nM	33.6 nM	-92.9%	29.5 nM
CC(=O)O[C@H]1/C=C/[C@H](C)[C@@H](/C(C)=C/C=C/[C@@H](C)COC(=O)N2CCC[C@@H]2C)OC(=O)C[C@H](O)CC[C@@]1(C)O	27.3 nM	> 10000 nM	38.1 nM	-90%	52.6 nM
C/C(=C\C=C\[C@@H](C)c1ccccn1)[C@H]1OC(=O)C[C@H](O)CC[C@@](C)(O)[C@@H](OC(=O)N2CCN(C(C)C)CC2)/C=C/[C@@H]1C	6.37 nM	> 1000 nM	31.8 nM	-90.1%	26.6 nM
C/C(=C\C=C\[C@@H](C)COC(=O)N1CC[C@@H](C(=O)O)C1)[C@H]1OC(=O)C[C@H](O)CC[C@@](C)(O)[C@@H](OC(=O)N2CCN(C3CCCCCC3)CC2)/C=C/[C@@H]1C	2.25 nM	> 1000 nM	692 nM	-58.3%	108 nM
CC(=O)O[C@H]1/C=C/[C@H](C)[C@@H](/C(C)=C/C=C/[C@@H](C)COC(=O)N2CCN(C)CC2)OC(=O)C[C@H](O)CC[C@@]1(C)O	236 nM	> 1000 nM	106 nM	-88.8%	203 nM
CCCN(C)C(=O)OC[C@H](C)/C=C/C=C(\C)[C@H]1OC(=O)C[C@H](O)CC[C@@](C)(O)[C@@H](OC(C)=O)/C=C/[C@@H]1C	6.22 nM	> 1000 nM	39.1 nM	-91.8%	42.5 nM
C/C(=C\C=C\[C@@H](C)c1ccccn1)[C@H]1OC(=O)C[C@H](O)CC[C@H](C)[C@@H](OC(=O)N2CCN(C3CCCCCC3)CC2)/C=C/[C@@H]1C	10.6 nM	2430 nM	33.2 nM	-96.3%	44 nM
COC[C@H]1CCCN1C(=O)OC[C@H](C)/C=C/C=C(\C)[C@H]1OC(=O)C[C@H](O)CC[C@@](C)(O)[C@@H](OC(C)=O)/C=C/[C@@H]1C	60.7 nM	> 1000 nM	71.6 nM	-90.9%	76.5 nM
CC(=O)O[C@H]1/C=C/[C@H](C)[C@@H](/C(C)=C/C=C/[C@@H](C)COC(=O)N2CCC2)OC(=O)C[C@H](O)CC[C@@]1(C)O	10.7 nM	> 10000 nM	138 nM	-91.8%	44.7 nM
C/C(=C\C=C/[C@@H](C)COC(=O)N1CC[C@@H](O)C1)[C@H]1OC(=O)C[C@H](O)CC[C@H](C)[C@@H](OC(=O)N2CCN(C)CC2)/C=C/[C@@H]1C	2.15 nM	> 1000 nM	4.51 nM	-90.4%	6.67 nM
CC[C@H](OC(C)=O)[C@@H](C)[C@H]1O[C@@H]1C[C@@](C)(O)/C=C/C=C(\C)[C@H]1OC(=O)C[C@H](O)CC[C@@](C)(O)[C@@H](OC(=O)N2CCN(C3CCCCCC3)CC2)/C=C/[C@@H]1C	5.85 nM	132 nM	2 nM	-78.6%	2.41 nM
CC(=O)O[C@H]1/C=C/[C@H](C)[C@@H](/C(C)=C/C=C/[C@@H](C)c2ccccn2)OC(=O)C[C@H](O)CC[C@@H]1C	538 nM	> 10000 nM	421 nM	28.1%	2890 nM
